Measured values from patent US20090016989A1, “ANTIBODIES TO HUMAN SOMATOSTATIN RECEPTOR AND METHODS OF USE” (priority 2007, published 2009).

Key:
Type in all cases: cell-based, human
BON cells [1] = assay: Cell number after 48-hour treatment (Viacount); settings: after 2 days of daily treatment, 5 μg/ml antibody or rabbit IgG, 100 nM octreotide
Procedure: A serotonin ([…]) assay was performed using Serotonin EIA (Biosource, Cat# KAPL10-0900) to measure serotonin release by BON cells over a 48-hour period with or without treatment. […] After 24 hours, the BON cells were subjected to six different daily treatments (at maximum dosages) and grown in FBS-free cell growth media for 2 days in a sterile tissue culture chamber at 37° C. with 6% CO2. These six treatments were: […] The anti-hSSTR Abs (4)-(6) were antibodies produced in the experiment described in Example 1. At the end of each treatment, 1× Halt Protease Inhibitor cocktail (Pierce, Cat# 78415) was immediately added to each sample and the media was collected from each sample and used for Serotonin detection. Next, cells were dissociated from the plate using 2 ml of 1× trypsin-EDTA (Invitrogen Cat#2520) in cell growth media and incubated at 37° C. with 6% CO2 for 5 minutes. Subsequently, an additional 8 ml of cell growth media was added to neutralize trypsin-EDTA, and subjected to 1000 rpm at 4° C. in 15 ml Falcon tubes using Beckman table top centrifuge. Guava Technologies PCA-96 instrument (tabletop flow cytometer) and Viacount flex reagent (Guava Technologies, Cat# 4500-0100) were then used to determine the number of cells for the abovementioned treatments. The results were as follows: […]

BON cells [2] = assay: Guava Nexin apoptosis assay (Annexin V / 7-AAD); settings: 10 μg/ml rabbit IgG or antibodies, 100 nM octreotide, % of Total
BON cells [3] = assay: Guava Nexin apoptosis assay (Annexin V / 7-AAD); settings: 10 μg/ml rabbit IgG or antibodies, 100 nM octreotide, % of Total; remark: listed apart in the source
Procedure: Cells were then switched to growth media without FBS and allowed to grow for another 24 hours before applying treatments. Samples were collected and counted in accordance with Guava Technologies' Viacount Flex (Cat#4500-0110) instructions. At the end of each antibody treatment, cells were dissociated from the plate using 1× trypsin-EDTA (Invitrogen Cat#2520). […] Next, phosphate buffer solution (D-PBS) (Invitrogen Cat#14190-144) (Invitrogen) was used as the exchange buffer to resuspend the cell pellet. […] Detection was achieved by using Guava PCA96 instrument and data was analysed by using Guava Nexin software module as (Cat#0500-0250). […] Following the protocol for the Guava Nexin™ assay (Guava Technologies), two different dyes were used to stain for cells undergoing apoptosis: 7-AAD stains for dead and late apoptosis cells (upper right quadrant of each graph in FIG. 10), and Annexin V stains for cells undergoing apoptosis from the early stage (lower right quadrant of each graph in FIG. 10). […] Once every 24 hours for 72 hours (FIGS. 10B, 10C and 10D), cells were collected and tested for apoptosis status using the Guava Nexin™ assay (Guava Technologies).

BON cells [4] = assay: MTS cell proliferation assay, growth doubling time
Procedure: The effects of anti-hSSTR subtype 2 and anti-hSSTR subtype 5 antibodies on cell proliferation were tested using CellTiter 96® Aqueous One Solution Cell Proliferation Assay (MTS) (Promega, Cat#G3581). The assay was performed to measure the growth doubling time for BON cells in vitro (FIG. 3, growth doubling time in hours is presented on the Y-axis). The growth doubling time for BON cells following treatment with rabbit IgG was around 28 to 30 hours (similar to vehicle alone). […] Cell growth was detected at 490 nm (colorimetric detection) by using instrument Victor 3V (Perkin Elmer) once every 24 hours in the duration of 96 hours.
The resulting maximal suppression in hours (20 hours) is designated as 100% of growth suppression. The difference measured in doubling time detected between experimental samples and untreated samples divided by the maximal suppression yields the percent growth suppression.
BON cells were seeded, grown and maintained in F12 HAM (Invitrogen, Cat#31765035)/D-MEM (Invitrogen, Cat#10567-014) (50/50) with 10% certified fetal bovine serum (FBS) (Invitrogen, Cat#16000-044) in 96-well cell culture dishes (Costar, Cat# 3590) at a density of 2500 cells/well. […] Cell growth was detected at 490 nm (colorimetric detection) by using instrument Victor 3V (Perkin Elmer) once every 24 hours in the duration of 96 hours.

C[C@@H](O)[C@@H]1NC(=O)[C@H](CCCCN)NC(=O)[C@@H](Cc2c[nH]c3ccccc23)NC(=O)[C@H](Cc2ccccc2)NC(=O)[C@@H](NC(=O)[C@H](N)Cc2ccccc2)CSSC[C@@H](C(=O)N[C@H](CO)[C@@H](C)O)NC1=O [octreotide]
number of cells (BON cells [1]): 7 million cells | Live, healthy cells (Lower Left Quadrant) (BON cells [2]; 24 hours after treatment): 95.7% | Late apoptotic cells (Upper Right Quadrant) (BON cells [2]; 48 hours after treatment): 10.0% | Live, healthy cells (Lower Left Quadrant) (BON cells [2]; 48 hours after treatment): 85.4% | Live, healthy cells (Lower Left Quadrant) (BON cells [2]; 72 hours after treatment): 72.5% | 7-AAD+ (BON cells [3]; 24 hours after treatment): 1.1% | Annexin V+ (BON cells [3]; 24 hours after treatment): 4.3% | Early apoptotic cells (Lower Right Quadrant) (BON cells [3]; 24 hours after treatment): 3.3% | Late apoptotic cells (Upper Right Quadrant) (BON cells [3]; 24 hours after treatment): 1.0% | Nuclear Debris (Upper Left Quadrant) (BON cells [3]; 24 hours after treatment): 0.1% | 7-AAD+ (BON cells [3]; 48 hours after treatment): 10.9% | Annexin V+ (BON cells [3]; 48 hours after treatment): 13.7% | Early apoptotic cells (Lower Right Quadrant) (BON cells [3]; 48 hours after treatment): 3.8% | Nuclear Debris (Upper Left Quadrant) (BON cells [3]; 48 hours after treatment): 1.0% | 7-AAD+ (BON cells [3]; 72 hours after treatment): 19.8% | Annexin V+ (BON cells [3]; 72 hours after treatment): 26.9% | Early apoptotic cells (Lower Right Quadrant) (BON cells [3]; 72 hours after treatment): 7.7% | Late apoptotic cells (Upper Right Quadrant) (BON cells [3]; 72 hours after treatment): 19.2% | Nuclear Debris (Upper Left Quadrant) (BON cells [3]; 72 hours after treatment): 0.6% | approximate EC50 (growth) (BON cells [4]; octreotide 0.5, 1, 10 to 50 nM, FIG. 5): single nM | doubling time (BON cells [4]; saturating octreotide (50 nM)): ~50 h
